Experimental data: the NIST ThermoML archive (doi:10.1016/j.fluid.2018.10.024)

Columns and labels:
[1] = xn = mol fraction of the nth substance listed; details: 101 kPa, Liquid; for viscosity: Capillary tube (Ostwald / Ubbelohde) method; for mass density: Vibrating tube method
[2] = refractive index (Na D-line) (dimensionless); xn = mol fraction of the nth substance listed; details: 101 kPa, Liquid, Standard Abbe refractometry

ClC(Cl)Cl [trichloromethane] + CC(C)=O
Details	mass density, [1] [kg/m3]	refractive index, [2]	viscosity, [1] [mPa·s]
298.15 K, x2 = 0	1478.75	1.4422	0.5916
298.15 K, x2 = 0.0997	1419.64	1.4342	0.589
298.15 K, x2 = 0.1996	1357.58	1.4262	0.5814
298.15 K, x2 = 0.2993	1293.35	1.4192	0.5684
298.15 K, x2 = 0.3999	1226.35	1.4112	0.5412
298.15 K, x2 = 0.4979	1159.27	1.4029	0.5126
298.15 K, x2 = 0.599	1088.31	1.3941	0.4741
298.15 K, x2 = 0.6993	1016.22	1.3851	0.435
298.15 K, x2 = 0.8008	941.27	1.377	0.3975
298.15 K, x2 = 0.9006	864.78	1.3676	0.3443
303.15 K, x2 = 0	1469.16	1.4397	0.558
303.15 K, x2 = 0.0997	1409.35	1.4309	0.5571
303.15 K, x2 = 0.1996	1347.6	1.4252	0.5571
303.15 K, x2 = 0.2993	1284.12	1.418	0.5373
303.15 K, x2 = 0.3999	1217.87	1.4105	0.5156
303.15 K, x2 = 0.4979	1151.19	1.4019	0.4913
303.15 K, x2 = 0.599	1080.44	1.3924	0.4551
303.15 K, x2 = 0.6993	1008.68	1.3841	0.4188
303.15 K, x2 = 0.8008	934.43	1.3744	0.3802
303.15 K, x2 = 0.9006	858.83	1.3656	0.338
308.15 K, x2 = 0	1460.01	1.4356	0.5333
308.15 K, x2 = 0.0997	1402.33	1.4281	0.5329
308.15 K, x2 = 0.1996	1341.01	1.4215	0.5303
308.15 K, x2 = 0.2993	1276.96	1.4141	0.5185
308.15 K, x2 = 0.3999	1210.11	1.4055	0.4968
308.15 K, x2 = 0.4979	1143.34	1.3968	0.4693
308.15 K, x2 = 0.599	1073.05	1.3875	0.4396
308.15 K, x2 = 0.6993	1001.9	1.3791	0.4028
308.15 K, x2 = 0.8008	927.99	1.3702	0.3593
308.15 K, x2 = 0.9006	852.47	1.3601	0.3254
313.15 K, x2 = 0	1450.39	1.4338	0.5072
313.15 K, x2 = 0.0997	1393.77	1.4276	0.5067
313.15 K, x2 = 0.1996	1332.05	1.4202	0.4994
313.15 K, x2 = 0.2993	1268.04	1.4128	0.4876
313.15 K, x2 = 0.3999	1201.58	1.4048	0.468
313.15 K, x2 = 0.4979	1135.08	1.3965	0.4429
313.15 K, x2 = 0.599	1064.85	1.3873	0.4149
313.15 K, x2 = 0.6993	993.86	1.3787	0.383
313.15 K, x2 = 0.8008	920.68	1.3682	0.3453
313.15 K, x2 = 0.9006	846.27	1.3599	0.3056
318.15 K, x2 = 0	1440.03	1.4297	0.4849
318.15 K, x2 = 0.0997	1383.86	1.4244	0.4834
318.15 K, x2 = 0.1996	1322.43	1.4175	0.4798
318.15 K, x2 = 0.2993	1258.8	1.4094	0.4684
318.15 K, x2 = 0.3999	1192.83	1.4008	0.4483
318.15 K, x2 = 0.4979	1126.82	1.3929	0.4207
318.15 K, x2 = 0.599	1057.03	1.3839	0.389
318.15 K, x2 = 0.6993	986.42	1.3754	0.3583
318.15 K, x2 = 0.8008	913.61	1.365	0.3261
318.15 K, x2 = 0.9006	839.75	1.3548	0.2862

ClC(Cl)Cl [trichloromethane] + CO
Details	mass density, [1] [kg/m3]	refractive index, [2]	viscosity, [1] [mPa·s]
298.15 K, x2 = 0	1478.75	1.4422	0.5916
298.15 K, x2 = 0.0999	1443.84	1.4379	0.6213
298.15 K, x2 = 0.2012	1403.84	1.4312	0.6437
298.15 K, x2 = 0.3015	1358.87	1.4217	0.6585
298.15 K, x2 = 0.3991	1309.46	1.4115	0.6642
298.15 K, x2 = 0.502	1250.29	1.4018	0.6635
298.15 K, x2 = 0.5998	1186.04	1.3903	0.6552
298.15 K, x2 = 0.7012	1108.93	1.3789	0.6385
298.15 K, x2 = 0.7998	1020.91	1.3649	0.6182
298.15 K, x2 = 0.9001	914.54	1.3485	0.5812
303.15 K, x2 = 0	1469.16	1.4397	0.558
303.15 K, x2 = 0.0999	1434	1.4327	0.5797
303.15 K, x2 = 0.2012	1394.48	1.4257	0.5937
303.15 K, x2 = 0.3015	1350.17	1.4171	0.6053
303.15 K, x2 = 0.3991	1301.28	1.4084	0.6038
303.15 K, x2 = 0.502	1242.63	1.3979	0.6028
303.15 K, x2 = 0.5998	1178.79	1.3881	0.5919
303.15 K, x2 = 0.7012	1102.19	1.377	0.5796
303.15 K, x2 = 0.7998	1014.72	1.3633	0.5571
303.15 K, x2 = 0.9001	909	1.3467	0.533
308.15 K, x2 = 0	1460.01	1.4356	0.5333
308.15 K, x2 = 0.0999	1424.97	1.4289	0.5525
308.15 K, x2 = 0.2012	1385.67	1.4212	0.5656
308.15 K, x2 = 0.3015	1341.86	1.4116	0.5743
308.15 K, x2 = 0.3991	1293.54	1.4031	0.5766
308.15 K, x2 = 0.502	1235.37	1.3953	0.5716
308.15 K, x2 = 0.5998	1171.85	1.3856	0.5627
308.15 K, x2 = 0.7012	1095.59	1.3729	0.5487
308.15 K, x2 = 0.7998	1008.7	–	0.5267
308.15 K, x2 = 0.9001	903.73	1.3443	0.5044
313.15 K, x2 = 0	1450.39	1.4338	0.5072
313.15 K, x2 = 0.0999	1415.61	1.427	0.5241
313.15 K, x2 = 0.2012	1376.61	1.4211	0.5355
313.15 K, x2 = 0.3015	1333.14	1.4127	0.5429
313.15 K, x2 = 0.3991	1285.19	1.4049	0.5434
313.15 K, x2 = 0.502	1227.45	1.3943	0.5403
313.15 K, x2 = 0.5998	1164.4	1.3839	0.5264
313.15 K, x2 = 0.7012	1088.7	1.3722	0.5134
313.15 K, x2 = 0.7998	1002.44	1.3592	0.4924
313.15 K, x2 = 0.9001	898.23	–	0.4713
318.15 K, x2 = 0	1440.03	1.4297	0.4849
318.15 K, x2 = 0.0999	1405.51	1.4201	0.4991
318.15 K, x2 = 0.2012	1366.88	1.4174	0.5108
318.15 K, x2 = 0.3015	1323.78	1.4093	0.5144
318.15 K, x2 = 0.3991	1276.2	1.4023	0.5142
318.15 K, x2 = 0.502	1218.91	1.3927	0.5108
318.15 K, x2 = 0.5998	1156.37	1.3817	0.4976
318.15 K, x2 = 0.7012	1081.29	1.3719	0.483
318.15 K, x2 = 0.7998	995.73	1.3576	0.4655
318.15 K, x2 = 0.9001	892.36	1.3406	0.4426
